Laboratory results as given in PubChem BioAssay (NCI).
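How tested: cells in 96-well plates exposed to compound for 48 hours at five concentrations. Abbreviation: GI50, concentration required for 50% inhibition of growth. TGI denotes the concentration required for complete inhibition of growth.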

Assays:
Experiment in all cases: NCI anticancer screen, dose series, 48 h
[1] = tested on: OVCAR-4 ovarian
[2] = tested on: DU-145 prostate
[3] = tested on: MALME-3M melanoma
[4] = tested on: OVCAR-5 ovarian
[5] = tested on: SNB-19 CNS
[6] = tested on: SF-268 CNS
[7] = tested on: SNB-75 CNS
[8] = tested on: SN12C renal
[9] = tested on: HOP-92 NSCLC
[10] = tested on: UACC-62 melanoma
[11] = tested on: OVCAR-3 ovarian
[12] = tested on: OVCAR-8 ovarian
[13] = tested on: RPMI-8226 leukemia
[14] = tested on: RXF 393 renal
[15] = tested on: LOX IMVI melanoma
[16] = tested on: HCT-15 colon
[17] = tested on: MCF7 breast
[18] = tested on: COLO 205 colon
[19] = tested on: T-47D breast
[20] = tested on: SF-539 CNS
[21] = tested on: EKVX NSCLC
[22] = tested on: A549 NSCLC
[23] = tested on: UACC-257 melanoma
[24] = tested on: BT-549 breast
[25] = tested on: K-562 leukemia
[26] = tested on: NCI-H460 lung
[27] = tested on: PC-3 prostate
[28] = tested on: 786-0 renal
[29] = tested on: MDA-MB-231 breast
[30] = tested on: NCI-H522 lung
[31] = tested on: KM12 colon
[32] = tested on: HCC-2998 colon
[33] = tested on: SK-MEL-5 melanoma
[34] = tested on: SK-MEL-2 melanoma
[35] = tested on: A498 renal
[36] = tested on: NCI-H226 lung
[37] = tested on: MOLT-4 leukemia
[38] = tested on: CCRF-CEM leukemia
[39] = tested on: SF-295 CNS
[40] = tested on: ACHN renal
[41] = tested on: NCI/ADR-RES ovarian
[42] = tested on: SK-OV-3 ovarian
[43] = tested on: UO-31 renal
[44] = tested on: HCT-116 colon
[45] = tested on: HT29 colon
[46] = tested on: TK-10 renal
[47] = tested on: HL-60(TB) leukemia
[48] = tested on: SW-620 colon
[49] = tested on: CAKI-1 renal
[50] = tested on: SK-MEL-28 melanoma
[51] = tested on: HOP-62 NSCLC
[52] = tested on: M14 melanoma
[53] = tested on: U251 CNS
[54] = tested on: MDA-MB-435
[55] = tested on: HS 578T breast
[56] = tested on: IGROV1 ovarian
[57] = tested on: SR leukemia

Compound: CN(C)S(=O)(=O)c1oc(-c2ccccc2)nc1C#N
- GI50 [1]: 14.8 µM
- TGI [1]: 32 µM
- GI50 [2]: 15.6 µM
- TGI [2]: 29.4 µM
- GI50 [3]: 13.4 µM
- TGI [3]: 30.1 µM
- GI50 [4]: 18.1 µM
- TGI [4]: 36.7 µM
- GI50 [5]: 50 µM
- TGI [5]: > 100 µM
- GI50 [6]: 19.6 µM
- TGI [6]: 49.8 µM
- GI50 [7]: 16.1 µM
- TGI [7]: 30.7 µM
- GI50 [8]: 17.2 µM
- TGI [8]: 49.1 µM
- GI50 [9]: 5.76 µM
- TGI [9]: 20.1 µM
- GI50 [10]: 18.4 µM
- TGI [10]: 42.3 µM
- GI50 [11]: 12.9 µM
- TGI [11]: 27.8 µM
- GI50 [12]: 19 µM
- TGI [12]: 39.6 µM
- GI50 [13]: 18.9 µM
- TGI [13]: 43.8 µM
- GI50 [14]: 14.4 µM
- TGI [14]: 28.4 µM
- GI50 [15]: 1.26 µM
- TGI [15]: 11.6 µM
- GI50 [16]: 11.6 µM
- TGI [16]: 29.5 µM
- GI50 [17]: 12 µM
- TGI [17]: 31.6 µM
- GI50 [18]: 11.5 µM
- TGI [18]: 24.7 µM
- GI50 [19]: 16.1 µM
- TGI [19]: 38.5 µM
- GI50 [20]: 17.6 µM
- TGI [20]: 32.4 µM
- GI50 [21]: 21.5 µM
- TGI [21]: 52.4 µM
- GI50 [22]: 73.9 µM
- TGI [22]: > 100 µM
- GI50 [23]: 15 µM
- TGI [23]: 29.8 µM
- GI50 [24]: 12 µM
- TGI [24]: 25.1 µM
- GI50 [25]: 3.58 µM
- TGI [25]: 37.8 µM
- GI50 [26]: 22.3 µM
- TGI [26]: 58.9 µM
- GI50 [27]: 15.3 µM
- TGI [27]: 32.2 µM
- GI50 [28]: 15.3 µM
- TGI [28]: 29.3 µM
- GI50 [29]: 23.5 µM
- TGI [29]: 59.2 µM
- GI50 [30]: 2.81 µM
- TGI [30]: 11 µM
- GI50 [31]: 28.5 µM
- TGI [31]: 97.9 µM
- GI50 [32]: 16.9 µM
- TGI [32]: 31.6 µM
- GI50 [33]: 18.1 µM
- TGI [33]: 34.1 µM
- GI50 [34]: 13.8 µM
- TGI [34]: 28.6 µM
- GI50 [35]: > 100 µM
- TGI [35]: > 100 µM
- GI50 [36]: 10 µM
- TGI [36]: 27.9 µM
- GI50 [37]: 2.82 µM
- TGI [37]: 11.5 µM
- GI50 [38]: 1.9 µM
- TGI [38]: 9.32 µM
- GI50 [39]: > 100 µM
- TGI [39]: > 100 µM
- GI50 [40]: 14.9 µM
- TGI [40]: 28.6 µM
- GI50 [41]: 29.9 µM
- TGI [41]: > 100 µM
- GI50 [42]: > 100 µM
- TGI [42]: > 100 µM
- GI50 [43]: 14.7 µM
- TGI [43]: 28.2 µM
- GI50 [44]: 12.6 µM
- TGI [44]: 25.6 µM
- GI50 [45]: 16.6 µM
- TGI [45]: 36.1 µM
- GI50 [46]: 17.4 µM
- TGI [46]: 31.6 µM
- GI50 [47]: 6.58 µM
- TGI [47]: 29.4 µM
- GI50 [48]: 9.58 µM
- TGI [48]: 26.2 µM
- GI50 [49]: 10.4 µM
- TGI [49]: 22.1 µM
- GI50 [50]: 16.3 µM
- TGI [50]: 31.1 µM
- GI50 [51]: > 100 µM
- TGI [51]: > 100 µM
- GI50 [52]: 12.1 µM
- TGI [52]: 26.7 µM
- GI50 [53]: 17.1 µM
- TGI [53]: 32.6 µM
- GI50 [54]: 18.3 µM
- TGI [54]: 44.9 µM
- GI50 [55]: 23.4 µM
- TGI [55]: 98.4 µM
- GI50 [56]: 29 µM
- TGI [56]: > 100 µM
- GI50 [57]: 2.56 µM
- TGI [57]: 13.4 µM
